According to patent US11331364B2, “Use for JNK inhibitor molecules for treatment of various diseases” (Xigen Inflammation Ltd., priority 2014, dated 2022):
“Also recorded” adds a separate entry of the source. Square brackets hold non-standard residues; d marks the D form. Peptide text beside a SMILES is read from it.

Tests used:
[1] = test system: THP1 differentiated macrophages; experiment: LPS-induced cytokine release in PMA differentiated THP1 macrophages (ELISA); format: cell-based, human
Protocol: In the following the procedure will be set forth describing how the released amount of several human cytokines after ligand induced secretion from human cells (Blood, WBC, PBMC, purified primary lymphocytes, cell lines, . . . ) was measured.
The technique used is a Sandwich ELISA, which allows measuring the amount of antigen between two layers of antibodies (i.e. capture and detection antibody). The antigen to be measured must contain at least two antigenic sites capable of binding to antibody, since at least two antibodies act in the sandwich. Either monoclonal or polyclonal antibodies can be used as the capture and detection antibodies in Sandwich ELISA systems. Monoclonal antibodies recognize a single epitope that allows fine detection and quantification of small differences in antigen. A polyclonal is often used as the capture antibody to pull down as much of the antigen as possible.
The method may be used to determine the effect of the JNK inhibitors of the present invention in vitro/cell culture. At non toxic doses, compound efficacy is indicated by the decrease of the cytokine levels (the variation of optical density (absorbance at 450 nm)) as compared to non-treated samples and is monitored by ELISA. Results are express in ng/ml.
In the following the procedure will be set forth describing how cytokine production from human PMA differentiated THP1 cells challenged by LPS for 6 h was induced in order to test the ability of JNK inhibitors of the present invention, in particular of a JNK inhibitor with SEQ ID NO: 172, to reduce stimulation-induced cytokine release. THP1 cells were stimulated ex-vivo by different ligands for the readout of cytokine release. At non toxic doses, JNK inhibitor efficacy is indicated by the decrease of the cytokine levels as compared to non-treated samples and is monitored by ELISA. The toxicity of the compound are evaluated by the reduction of a tretazolium salt (MTS) to formazan, giving a purple colour.
The cells were counted. […]

[2] = test system: acute CYP-induced cystitis in female Sprague-Dawley rats; experiment: Cyclophosphamide-induced acute cystitis, intravesical treatment, visceral pain and bladder inflammation; format: in vivo, rat; settings: 50 mg/mL, i.ves.; 24 h after CYP
Protocol: This preclinical model is well-used to test therapeutic approaches for the treatment of interstitial cystitis/painful bladder syndrome (IC/PBS).
Animals were acclimatized to the laboratory conditions for at least 3 days before the start of any experiments. The animals were allocated to the following four experimental groups (n=10 animals per group):
To induce acute cystitis, a single i.p. injection of CYP at a dose of 150 mg/kg in a final volume of 5 mL/kg was performed. Control rats received physiological saline under the same experimental conditions as CYP (final volume of 5 mL/kg, i.p.).
On the day of each experiment, weight of rats was recorded.
Standardized conditions including fixed time-of-day (a.m. to minimize the potential circadian variations in the behaviours responses) and single-experimenter testing of all animals were applied to minimize variability behavior-based pain testing. Visceral pain including allodynia and hyperalgesia was evaluated by applying to the lower abdomen, close to the urinary bladder, a set of 8 calibrated von Frey filaments of increasing forces (1, 2, 4, 6, 8, 10, 26 and 60 g) with an interstimulus interval of 5 seconds. Prior testing, the abdominal area designed for mechanical stimulation of each animal was shaved. Animals were then placed on a raised wire mesh floor under individual transparent Plexiglas box and acclimatized for at least 30 minutes before starting the von Frey test. Filaments were then applied 1-2 seconds through the mesh floor with enough strength to cause the filament to slightly bend. Each filament was tested 3 times. Care was taken to stimulate different areas within the lower abdominal region in the vicinity of the urinary bladder to avoid desensitization.
Nociceptive behaviors were scored for each animal and each filament as follows:
The study design is schematically shown in FIG. 50 A. Birefly, acute cystitis was induced by CYP injection (i.p.) at Do (as described above).
Urinary bladders were rapidly collected and cleaned from lipoid tissue. Urinary bladders were weighed, cut at the bladder neck as well as oedema and haemorrhage scoring was performed (see table below). Finally, wall thickness was measured using a digital caliper by placing the bladder wall between the two outside jaws.

## CC(C)C[C@H](NC(=O)[C@H](CC(N)=O)NC(=O)[C@H](CC(C)C)NC(=O)[C@@H](NC(=O)[C@@H](C)NC(=O)[C@@H]1CCCN1C(=O)[C@H](CCCNC(=N)N)NC(=O)[C@@H](CCCCN)NC(=O)[C@@H]1CCCN1C(=O)[C@H](CCCNC(=N)N)NC(=O)[C@@H](CCCNC(=N)N)NC(=O)[C@H](CCCNC(=N)N)NC(=O)[C@H](CCCNC(=N)N)NC(=O)[C@H](CCC(N)=O)NC(=O)[C@@H](CCCNC(=N)N)NC(=O)[C@H](CCCNC(=N)N)NC(=O)[C@H](CCCCN)NC(=O)[C@H](CCCCN)NC(=O)[C@H](N)CCCNC(=N)N)[C@@H](C)O)C(=O)N[C@H](Cc1ccccc1)C(N)=O [SEQ ID NO: 172, rKKRrQRRrRPkRPaTLNLf] (H-[dR]KKR[dR]QRR[dR]RP[dK]RP[dA]TLNL[dF]-NH2; N-terminus assumed)
[1]; LPS added for 6 h
  LPS-induced IL6 release: higher potency than D-TAT-IB1 (SEQ ID NO: 197), dTAT (SEQ ID NO: 45) and SP 600125; also recorded: higher potency than D-TAT-IB1 (SEQ ID NO: 197) and L-TAT-IB1 (SEQ ID NO: 196)
[1]; PMA/THP1 differentiated macrophages, LPS
  LPS-induced TNFα release: higher potency than D-TAT-IB1 (SEQ ID NO: 197), dTAT (SEQ ID NO: 45) and SP 600125; also recorded: higher potency than D-TAT-IB1 (SEQ ID NO: 197) and L-TAT-IB1 (SEQ ID NO: 196)
[1]; THP1-PMA-differentiated macrophages, TNF, IL 6, MCP1, 6 h LPS
  LPS-induced cytokine and chemokine release: blocks LPS-induced cytokine and chemokine release
[2]
  AUC 1-8 g (allodynia) vs vehicle: significantly decreased
  AUC 8-60 g (hyperalgesia) vs vehicle: reduced
  haemorrhage scores vs vehicle: no significant change
  nociceptive scores vs vehicle: significantly decreased
  nociceptive threshold vs vehicle: significantly increased
  oedema scores vs vehicle: significant decrease
  urinary bladder wall thickness vs vehicle: significantly decreased
